Experimental data from patent publication US6590123B2, “Aminobenzoic acid derivatives having anti-tumorigenic activity, methods of making and using the same” (Mount Sinai School of Medicine of New York University, priority 1998, dated 2003).

Key:
[1] = LD50 (lethal dose) in mice; conditions: mice, i.p.
Description: (§1) The in vivo efficacy of 3-BAABU and 3-IAABU of the present invention was asssessed in a murine model, along with known anti-tubule agents, vinblastine and paclitaxel, as a comparative standard. Approximately 10^6 P338 leukemia lymphoma cells/mouse were implanted intra-peritoneal (i.p.) into male C57 BL/6JX mice (Jackson Laboratories, N.Y.). On days 2 and 8 post-implantation, drugs were administrated i.p. at the following concentration ranges: 3-BAABU from 16.6 to 116 μmole/kg, 3-IAABU from 14.4 to 101 μmole/kg, vinblastine from 2.2 to 20 μmole/kg and paclitaxel from 28 to 57 μmole/kg.
(§2) Both control and treated animals were examined for ascitic tumor burden daily for 35 days. […] Therapeutic index was defined as the ratio of LD50 (lethal dose) to ED50 (effective dose).

Purified tubulin = experiment: Inhibition of microtubule assembly by spectrophotometry, cell free system; assay type: biochemical, calf; conditions: 23 μM
Description: (§3) Purified tubulin was purchased from Sigma (St. Louis, Mo.). The effects of compounds 6, 7, 8, 9, paclitaxel and vinblastine on the microtubule assembly-disassembly process were determined using conditions recommended by the vendor. For assembly inhibition, 100 μl tubulin solution (500-600 μg protein/ml) was mixed gently with 400 μl reaction buffer containing 0.1 M MES (2-[N-morpholino]ethane sulfonic acid), 1 mM EGTA ([…]-N,N,N′,N′-tetraacetic acid), 0.5 mM MgCl2, 0.1 mM EDTA and 2.5 M gycerol at 37° C. Compounds 6, 7, 8, and 9 were next added to each sample at final concentrations of 10, 10, 1 and 1 μg/ml, respectively. After adding GTP to each sample to a final concentration of 1 mM, the microtubule assembly process was monitored by measuring the change of absorbance (OD) at 350 nm on a spectrophotometer (Ultrospec III, Pharmacia LKB, Uppsala, Sweden). A completed assembly process was observed within 40 min at room temperature. For disassembly inhibition, compounds 6, 7, 8, and 9 were added, at the above concentrations, to covets with repolymerized microtubules as described above, and incubated in melting ice. Changes of absorbance (OD) were monitored at 350 nm for 30 min until the OD values in the controls returned to the starting level, i.e., when the assembly-disassembly cycle was completed.
Purified tubulin from calf brain was purchased from Sigma (St. Louis, Mo.). The effects of 3-BAABU (3-bromoacetoamido, benzoylurea) on the microtubule assembly-disassembly process were determined using the conditions recommended by the vendor. For assembly inhibition, 100 μl tubulin solution (500-600 μg protein/ml) was mixed gently with 400 μl reaction buffer containing 0.1 M MES, 1 mM EGTA, 0.5 mM MgCl2, 0.1 mM EDTA and 2.5 M glycerol at 37° C. 3-BAABU, paclitaxel or vinblastine were then added to each sample cuvet at final concentrations of 3.3, 23 or 22 μM, respectively. After adding GTP to each sample to a final concentration of 1 mM, the microtubule assembly process was monitored by measuring the change of absorbance (OD) every 5 min at 350 nm on a spectrophotometer (Ultrospec III, Pharmacia LKB, Uppsala, Sweden). A completed assembly process was observed within 40 min at room temperature. For disassembly inhibition, 3-BAABU (3.3 μM), paclitaxel (23 μM) or vinblastine (22 μM) was added to a cuvet with repolymerized microtubules according to the method described above, and incubated in melting ice. Changes of absorbance (OD) were monitored at 350 nm for 30 min until the OD values in the controls returned to the starting level, i.e., completion of the assembly-disassembly cycle. Solvent solutions were used as control and had no effect in either the assembly or disassembly process.

[2] = test system: P338 leukemia lymphoma cells; experiment: Survival and ED50 in mice implanted i.p. with P338 lymphoma; assay type: in vivo, male C57 BL/6JX mice
Description: FIG. 9 is a plot graph of the survival rate of male C57 BL/6JX mice implanted (i.p.) with P338 lymphoma, from 10 to 40 days after implantation. Two groups were used for the study: a control group of ten and a test group of ten that were treated with 20 mg/kg, (i.p.) of compound 8 at 2 and 8 days post-implantation.
as §1, §2

[3] = test system: repolymerized microtubules; experiment: Inhibition of microtubule disassembly by spectrophotometry, cell free system; assay type: biochemical, calf; conditions: 23 μM
Description: as §3, with “A completed assembly process was observed within 40 min at room temperature. For disassembly inhibition, compounds 6, 7, 8, and 9 were added, at the above concentrations, to covets with repolymerized microtubules as described above, and incubated in melting ice.” left out
Purified tubulin from calf brain was purchased from Sigma (St. Louis, Mo.). The effects of 3-BAABU (3-bromoacetoamido, benzoylurea) on the microtubule assembly-disassembly process were determined using the conditions recommended by the vendor. […]

For CC(=O)O[C@H]1C(=O)[C@@]2(C)[C@H]([C@H](OC(=O)c3ccccc3)[C@]3(O)C[C@H](OC(=O)[C@H](O)[C@@H](NC(=O)c4ccccc4)c4ccccc4)C(C)=C1C3(C)C)[C@]1(OC(C)=O)CO[C@@H]1C[C@@H]2O [Paclitaxel, reference compound], the LD50 [1] was 45 µmol/kg, the “activity on microtubular polymerization” value (Purified tubulin) was “no activity” and the “Survival IL %” value ([2]; P338 Lymphoma (i.p.), 30 mg/kg ip on days 2 & 8) was 10%. For the same molecule, the “Survival Mean ± SD” value ([2]; P338 Lymphoma (i.p.), 30 mg/kg ip on days 2 & 8, control 18.6 ± 1.1) was 20.4 ± 3.2, the ED50 ([2]; P338 leukemia lymphoma i.p. in mice, drug i.p. on days 2 and 8) was 37 µmol/kg and the “inhibition of microtubule depolymerization” value [3] was “significant inhibition”.
